# Assay results as given in ChEMBL document CHEMBL1131889, “Synthesis and acetylcholinesterase inhibitory activity of huperzine A-E2020 combined compound” (Bioorg Med Chem Lett, 1999).
# Target: T1, Acetylcholinesterase (Rattus norvegicus, UniProt P37136)
# T1 sequence (P37136 whole entry): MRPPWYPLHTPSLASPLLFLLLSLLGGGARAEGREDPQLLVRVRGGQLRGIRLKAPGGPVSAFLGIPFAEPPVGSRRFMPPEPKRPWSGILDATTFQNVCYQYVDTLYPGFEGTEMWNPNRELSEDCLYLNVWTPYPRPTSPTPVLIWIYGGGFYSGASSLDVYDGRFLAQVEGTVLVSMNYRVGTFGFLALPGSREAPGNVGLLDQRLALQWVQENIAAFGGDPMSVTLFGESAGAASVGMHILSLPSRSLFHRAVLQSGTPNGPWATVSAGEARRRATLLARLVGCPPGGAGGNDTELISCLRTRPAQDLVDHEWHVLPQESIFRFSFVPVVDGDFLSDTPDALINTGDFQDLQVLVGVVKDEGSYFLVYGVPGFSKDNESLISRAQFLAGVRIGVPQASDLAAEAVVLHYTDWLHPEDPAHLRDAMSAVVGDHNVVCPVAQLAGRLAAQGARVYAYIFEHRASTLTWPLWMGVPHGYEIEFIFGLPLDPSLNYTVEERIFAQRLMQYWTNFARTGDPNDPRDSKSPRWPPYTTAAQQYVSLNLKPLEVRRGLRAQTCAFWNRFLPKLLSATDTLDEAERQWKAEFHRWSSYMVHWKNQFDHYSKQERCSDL
# Experiment: Inhibitory activity against Acetylcholinesterase (AChE) in rat brain hippocampal crude homogenate
# Type: tissue-based, Hippocampus
row,SMILES,IC50 [µM]
1,CC1(NCC2CCN(Cc3ccccc3)CC2)c2ccc(O)nc2CCC1O (stereo not drawn),> 190
2,COc1ccc2c(n1)CCC(OC)C2(C)NCC1CCN(Cc2ccccc2)CC1 (stereo not drawn),> 177
3,COc1ccc2c(n1)CCC(OC)C2(C)NC(=O)C1CCN(Cc2ccccc2)CC1 (stereo not drawn),17.2
